Measurements published in US8980944B2 (Gemmus Pharma Inc., priority 2006, dated 2015).
Where “and” joins values, the source holds several entries; their conditions need not be identical. Identical values can stand only once.

Assays:
TNFα [1] = assay: Poly(I:C)-stimulated human peripheral blood lymphocytes, TNFα release (ELISA)
TNFα [2] = assay: TNFα release from human monocyte-derived dendritic cells activated with LPS, CD40 ligand or CpG-DNA (ELISA); format: cell-based; settings: 1 μM; for TNFα in culture supernatant: 18 hours
Description: Human donor monocyte-derived dendritic cells were cultured in RPMI-1640 containing 10% fetal bovine serum for six days in the presence of 10 ng/mL IL-4 and 200 ng/mL GM-CSF. The cells were activated with various activation stimuli: 10 ng/mL LPS (Sigma), 5 μg/mL Recombinant human CD-40 ligand (R&D Systems), or 5 μM Human CpG-DNA (HyCult Biotechnology) in the presence of prostaglandin E2 (PGE2) (1 μM), vehicle control (DMSO) or test substances (1 μM) for 18 hours. The levels of cell culture supernatant TNFα for individual donors was measured by commercial ELISA kits.

IL-12 [3] = assay: LPS-stimulated human monocyte-derived dendritic cells, IL-12 release (ELISA); settings: 1 μM; human monocyte-derived dendritic cells, LPS stimulation; individual donors 1-4
IL-12 [4] = settings: DC activated in the presence of PGE2; Hilkens et al. 1996; cited from earlier work
TNFα [5] = assay: Poly(I:C)-stimulated human monocyte-derived dendritic cells, TNFα release (ELISA); format: cell-based; settings: Poly IC-stimulated monocyte-derived dendritic cells, one micromolar, 18 hours
H5N1 influenza virus = settings: mice infected with H5N1 influenza virus, treated; cited from earlier work
[6] = CD40 ligand 5 μg/mL, Donor 3, Vehicle 567.1
[7] = CD40 ligand 5 μg/mL, Donor 4, Vehicle 546.3
[8] = CD40 ligand 5 μg/mL, Donor 6, Vehicle 541.8
[9] = CpG 5 μM, Donor 1, Vehicle 2155.9
[10] = CpG 5 μM, Donor 3, Vehicle 1340.7
[11] = CpG 5 μM, Donor 6, Vehicle 467.8
[12] = LPS 10 ng/mL, Donor 4, Vehicle 3566.9
[13] = LPS 10 ng/mL, Donor 6, Vehicle 10750.1

CC#CCC(C)[C@H](O)/C=C/[C@@H]1[C@H]2c3cccc(CCCC(=O)O)c3O[C@H]2C[C@H]1O (relative stereo) [Beraprost, (+/−)-(1R*,2R*,3 as*,8bS*)-2,3,3a,8b-tetrahydro-2-hydroxy-1-[(E)-(3S*)-3-hydroxy-4-methyl-1-octen-6-ynyl]-1H-cyclopenta[b]benzofuran-5-butyrate]
TNFα percent inhibition from untreated control (TNFα [1]; Beraprost 0.04 nM, Poly IC-stimulated peripheral blood lymphocytes, individual donors 1-2): 4% | TNFα percent inhibition from untreated control (TNFα [1]; Beraprost 0.11 nM, Poly IC-stimulated peripheral blood lymphocytes, individual donors 1-2): 26% | TNFα percent inhibition from untreated control (TNFα [1]; Beraprost 1 nM, Poly IC-stimulated peripheral blood lymphocytes, individual donors 1-2): 11% and 28% | TNFα percent inhibition from untreated control (TNFα [1]; Beraprost 3 nM, Poly IC-stimulated peripheral blood lymphocytes, individual donors 1-2): 36% and 11% | TNFα percent inhibition from untreated control (TNFα [1]; Beraprost 9 nM, Poly IC-stimulated peripheral blood lymphocytes, individual donors 1-2): 35% | TNFα percent inhibition from untreated control (TNFα [1]; Beraprost 250 nM, Poly IC-stimulated peripheral blood lymphocytes, individual donors 1-2): 59% | inhibition at 0.00011 µM (TNFα [1]; Homo sapiens, Lymphocyte, read-out: TNFα percent inhibition from untreated control, Beraprost 0.11 nM, Poly IC-stimulated peripheral blood lymphocytes, individual donors 1-2): 19% | inhibition at 0.009 µM (TNFα [1]; Homo sapiens, Lymphocyte, read-out: TNFα percent inhibition from untreated control, Beraprost 9 nM, Poly IC-stimulated peripheral blood lymphocytes, individual donors 1-2): 46% | inhibition at 0.083 µM (TNFα [1]; Homo sapiens, Lymphocyte, read-out: TNFα percent inhibition from untreated control, Beraprost 83 nM, Poly IC-stimulated peripheral blood lymphocytes, individual donors 1-2): 56% | inhibition at 0.25 µM (TNFα [1]; Homo sapiens, Lymphocyte, read-out: TNFα percent inhibition from untreated control, Beraprost 250 nM, Poly IC-stimulated peripheral blood lymphocytes, individual donors 1-2): 67% | Poly(I:C)-induced TNFα (TNFα [1]; peripheral blood lymphocytes): significant descrease

CCCCC[C@H](O)/C=C/[C@H]1[C@H](O)CC(=O)[C@@H]1C/C=C\CCCC(=O)O [PGE2, prostaglandin E2, reference compound]
TNFα in culture supernatant (TNFα [2]; [6]): 147.9 pg/mL | TNFα in culture supernatant (TNFα [2]; [7]): 87.0 pg/mL | TNFα in culture supernatant (TNFα [2]; [8]): 54.2 pg/mL | TNFα in culture supernatant (TNFα [2]; [9]): 104.5 pg/mL | TNFα in culture supernatant (TNFα [2]; [10]): 70.0 pg/mL | TNFα in culture supernatant (TNFα [2]; [11]): 106.2 pg/mL | TNFα in culture supernatant (TNFα [2]; [12]): 0.0 pg/mL | TNFα in culture supernatant (TNFα [2]; [13]): 174.8 pg/mL | Percent inhibition of IL-12 compared to uninhibited control (IL-12 [3]): 80% and 33% and 83% and 72% | IL-12 production by dendritic cells (IL-12 [4]): impaired IL-12 production | TNFα percent inhibition from untreated control (TNFα [5]; Donor 1): 96% | TNFα percent inhibition from untreated control (TNFα [5]; Donor 2): 63% | TNFα percent inhibition from untreated control (TNFα [5]; Donor 3): 81% | TNFα percent inhibition from untreated control (TNFα [5]; Donor 4): 29%

CCOC(=O)C1=C[C@@H](OC(CC)CC)[C@H](NC(C)=O)[C@@H](N)C1 [Tamiflu, oseltamivir]
survival of infected mice (H5N1 influenza virus): survived

CCC1(CC/C=C/C2C(C/C=C\CCCC(=O)O)[C@H](Cl)C[C@H]2O)CCCC1 (stereo partly drawn) [Test Substance 1, (5Z,13E)-(9R,11R)-9-chloro-11-hydroxy-17,17-tetramethylene-20-nor-5,13-prostadienoic acid]
cytokine levels measured in the culture supernatant (TNFα [2]; LPS, CD40 ligand or CpG activation): led to an inhibition in the cytokine levels | TNFα in culture supernatant (TNFα [2]; [6]): 274.3 pg/mL | TNFα in culture supernatant (TNFα [2]; [7]): 226.8 pg/mL | TNFα in culture supernatant (TNFα [2]; [8]): 142.4 pg/mL | TNFα in culture supernatant (TNFα [2]; [9]): 291.3 pg/mL | TNFα in culture supernatant (TNFα [2]; [10]): 599.4 pg/mL | TNFα in culture supernatant (TNFα [2]; [11]): 115.9 pg/mL | TNFα in culture supernatant (TNFα [2]; [12]): 643.6 pg/mL | TNFα in culture supernatant (TNFα [2]; [13]): 753.7 pg/mL
